Converted amounts (≈) assume the structure as drawn. The source made the active and inactive calls. The calls are words filed in the database; no cut-off is given here.
Assays:
[1] = test system: P388; experiment: Cytotoxicity against mouse P388 cells; assay type: functional, cell-based
[2] = test system: Trichophyton mentagrophytes; experiment: Antimicrobial activity against Trichophyton mentagrophytes at 60 ug/disk; assay type: functional, organism-based
[3] = test system: Pseudomonas aeruginosa; experiment: Antimicrobial activity against Pseudomonas aeruginosa at 60 ug/disk; assay type: functional, organism-based
[4] = test system: Bacillus subtilis; experiment: Antimicrobial activity against Bacillus subtilis at 60 ug/disk; assay type: functional, organism-based
[5] = test system: Candida albicans; experiment: Antimicrobial activity against Candida albicans at 60 ug/disk; assay type: functional, organism-based
[6] = test system: Poliovirus 1; experiment: Antiviral activity against Poliovirus type 1 in african green monkey BSC1 cells assessed as inhibition of virus-induced cytopathic effect; assay type: functional, organism-based; conditions: BSC-1
[7] = Cytotoxicity against african green monkey BSC1 cells at 10 ug; assay type: cell-based; conditions: chlorocebus aethiops, bsc-1
[8] = test system: Human alphaherpesvirus 1; experiment: Antiviral activity against HSV1 in african green monkey BSC1 cells assessed as inhibition of virus-induced cytopathic effect; assay type: functional, organism-based; conditions: BSC-1
[9] = test system: Escherichia coli; experiment: Antimicrobial activity against Escherichia coli at 60 ug/disk; assay type: functional, organism-based

COc1cc(CC=C(C)C)c(OC)c2ccccc12
IC50 [1]: > 25 µg/mL

CC(C)=CCC12OC1C(=O)c1ccccc1C2=O (configuration not stated)
Activity [2]: Active | Activity [3]: inactive | IC50 [1]: 0.8 µg/mL (≈ 3.3 µM) | Activity [4]: Active | Activity [5]: Active | Activity [6]: inactive | Activity [7]: Active | Activity [8]: inactive | Activity [9]: inactive

CC(C)=CCC1(CC=C(C)C)CC(=O)c2ccccc2C1=O
IC50 [1]: > 12.5 µg/mL

COC1(OC)c2ccccc2C(=O)C2(CC=C(C)C)OC21 (racemic)
IC50 [1]: > 12.5 µg/mL

CC(C)=CCC1=CC(=O)c2ccccc2C1=O [DEOXYLAPACHOL]
Activity [2]: Active | Activity [3]: inactive | IC50 [1]: 0.6 µg/mL (≈ 2.65 µM) | Activity [4]: Active | Activity [5]: Active | Activity [6]: inactive | Activity [7]: Active | Activity [8]: inactive | Activity [9]: inactive

CC(C)=CCC1=C(O)C(=O)c2ccccc2C1=O [LAPACHOL]
IC50 [1]: 0.2 µg/mL (≈ 0.826 µM)

Source: ChEMBL document CHEMBL1158967, “A cytotoxic and antifungal 1,4-naphthoquinone and related compounds from a New Zealand brown algae, Landsburgia quercifolia” (J Nat Prod, 1991)
